From patent publication US4914127A, “3-Demethylmevalonic acid derivatives, a process for their preparation pharmaceutical products based on these compounds, their use and intermediates” (Hoechst Aktiengesellschaft, priority 1985, dated 1990)
Like-named read-outs stand apart in the source and are kept apart here.

Legend:
[1] = target: T1, HMG-CoA reductase (in HEP-G2 cells) (Homo sapiens, UniProt P04035); assay: Suppression or inhibition of HMG-CoA reductase in cell cultures (HEP-G2 cells; method described for fibroblasts, L cells); type: cell-based
T1 construct: endogenous in cells; host or cells: HEP-G2 cells
T1 sequence (P04035 1-888): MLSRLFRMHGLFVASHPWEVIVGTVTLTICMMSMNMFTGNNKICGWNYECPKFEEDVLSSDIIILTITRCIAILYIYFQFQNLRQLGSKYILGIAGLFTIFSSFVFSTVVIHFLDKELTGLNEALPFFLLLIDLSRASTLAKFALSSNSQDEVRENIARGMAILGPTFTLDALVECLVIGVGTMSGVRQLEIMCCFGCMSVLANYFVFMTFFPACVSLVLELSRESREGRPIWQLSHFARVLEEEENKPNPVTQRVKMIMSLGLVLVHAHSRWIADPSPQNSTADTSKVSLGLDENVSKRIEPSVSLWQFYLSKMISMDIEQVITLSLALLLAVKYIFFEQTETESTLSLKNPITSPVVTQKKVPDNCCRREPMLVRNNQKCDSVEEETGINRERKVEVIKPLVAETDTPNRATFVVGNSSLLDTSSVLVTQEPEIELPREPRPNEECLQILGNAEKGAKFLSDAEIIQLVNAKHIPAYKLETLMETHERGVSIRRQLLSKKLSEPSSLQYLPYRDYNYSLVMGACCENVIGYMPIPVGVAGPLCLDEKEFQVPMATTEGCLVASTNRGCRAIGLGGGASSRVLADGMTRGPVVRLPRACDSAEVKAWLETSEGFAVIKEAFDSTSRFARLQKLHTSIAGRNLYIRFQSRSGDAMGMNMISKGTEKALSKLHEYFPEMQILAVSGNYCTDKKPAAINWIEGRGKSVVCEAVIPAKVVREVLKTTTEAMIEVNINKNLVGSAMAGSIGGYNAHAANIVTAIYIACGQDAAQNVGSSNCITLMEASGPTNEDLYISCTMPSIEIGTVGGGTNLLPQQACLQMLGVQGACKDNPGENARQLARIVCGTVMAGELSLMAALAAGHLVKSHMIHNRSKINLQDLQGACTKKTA
Procedure: 2. Suppression or inhibition of HMG-CoA reductase in cell cultures of fibroblasts.
Monolayers of fibroblasts (L cells) in lipoprotein-free nutrient medium were incubated with appropriate concentrations of test substances for a specified period (for example 3 hours) and then the HMG-CoA reductase activity of the cells was determined by modification of the method of Chang et al. (J. Biol. Chem. 256, 6174 (1981)). For this purpose, the cell extracts were incubated with D,L-[^3 H]-HMG-CoA, and the product [^3 H]-mevalonate formed from the cells by the action of the HMG-CoA reductase activity present was, after cyclization to [^3 H]-mevalonolactone, separated from the starting material by thin-layer chromatography and, by use of an internal standard of [^14 C]-mevalonate, the amount of [^3 H]-mevalonate formed in unit time was determined and related to the amount of cellular protein.

HMG-CoA reductase = target: T2, HMG-CoA reductase (Rattus norvegicus, UniProt P51639); assay: HMG-CoA reductase activity in solubilized enzyme preparations from liver microsomes of rats; type: biochemical; details: 14C-HMG-CoA substrate, mean from 3 parallel samples, read-out: IC50 [M], inhibition of HMG-CoA reductase
T2 construct: solubilized enzyme preparations from liver microsomes of rats; from tissue; host or cells: liver microsomes of cholestyramine-induced rats
T2 sequence (P51639 1-887): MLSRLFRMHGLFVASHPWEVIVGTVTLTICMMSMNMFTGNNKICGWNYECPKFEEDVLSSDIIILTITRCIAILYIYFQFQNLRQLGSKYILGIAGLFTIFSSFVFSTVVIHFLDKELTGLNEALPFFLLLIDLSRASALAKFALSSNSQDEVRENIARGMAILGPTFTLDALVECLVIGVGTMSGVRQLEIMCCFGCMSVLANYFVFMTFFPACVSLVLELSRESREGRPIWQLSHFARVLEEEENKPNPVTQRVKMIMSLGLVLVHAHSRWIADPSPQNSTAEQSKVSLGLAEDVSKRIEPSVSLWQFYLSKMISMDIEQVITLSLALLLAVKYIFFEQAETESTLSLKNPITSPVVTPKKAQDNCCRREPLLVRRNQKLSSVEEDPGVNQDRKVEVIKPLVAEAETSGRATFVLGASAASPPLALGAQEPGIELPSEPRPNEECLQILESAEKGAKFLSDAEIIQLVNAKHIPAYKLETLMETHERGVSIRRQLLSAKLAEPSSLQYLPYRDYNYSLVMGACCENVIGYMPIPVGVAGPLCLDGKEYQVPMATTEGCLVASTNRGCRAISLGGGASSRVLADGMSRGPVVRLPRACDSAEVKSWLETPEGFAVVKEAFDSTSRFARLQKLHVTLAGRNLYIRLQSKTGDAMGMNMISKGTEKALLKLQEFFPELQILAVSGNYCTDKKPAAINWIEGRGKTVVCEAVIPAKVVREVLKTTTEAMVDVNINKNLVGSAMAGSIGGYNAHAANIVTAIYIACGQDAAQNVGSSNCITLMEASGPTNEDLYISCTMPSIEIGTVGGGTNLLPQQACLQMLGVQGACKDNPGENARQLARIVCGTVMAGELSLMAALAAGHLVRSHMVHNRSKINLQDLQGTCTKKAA
Procedure: 1. HMG-CoA reductase activity in enzyme preparations
The HMG-CoA reductase activity was measured on solubilized enzyme preparations from liver microsomes of rats which, after the day/night rhythm had been changed, were induced with cholestyramine (®Cuemid). The substrate used was (S,R) ^14 C-HMG-CoA, and the concentration of NADPH was maintained during the incubation by a regenerating system. ^14 C-Mevalonate was removed from the substrate and other products (for example ^14 C-HMG) by column elution, the elution profile for each individual sample being determined. Constant inclusion of ^3 H-mevalonate was dispensed with because the determination was of the relative inhibitory effect. In each series of tests, the control containing no enzyme, and the normal mixture containing enzyme (=100%) and those with added products, final concentration 10^-5 to 10^-9 M, were treated together. Each individual figure was formed as the mean from 3 parallel samples. The signficance of the differences in the means between samples containing no product and those containing product was assessed by the t test.
Using the method described above, the following figures for the inhibition of HMG-CoA reductase were determined for the compounds according to the invention, for example: […]

[2] = in the rat; cited from earlier work
[3] = in human trials; cited from earlier work
[4] = system: 3-hydroxy-3-methylglutaryl-coenzyme-A reductase (HMG-CoA reductase); details: in words; cited from earlier work

| SMILES | IC50 [1] [nM] | IC50 (HMG-CoA reductase) [M] | also measured |
| --- | --- | --- | --- |
| O=C1C[C@H](O)C[C@@H](/C=C/c2c(Cl)cccc2Cc2ccc(Cl)cc2)O1 [16 ab] | 210000 | 2.3e-07 | – |
| O=C1C[C@H](O)C[C@@H](/C=C/c2ccccc2CCc2ccc(F)cc2)O1 [16 g] | 500000 | 9e-07 | – |
| CC(O)(CC(=O)O)CC(=O)O [3-Hydroxy-3-methylglutaric acid] | – | – | cholesterol-lowering action [2]: significant cholesterol-lowering action; cholesterol-lowering action [3]: significant cholesterol-lowering action |
| O=C1C[C@H](O)C[C@@H](/C=C/c2ccccc2CC2CCCCC2)O1 [16 j] | 380000 | 9e-08 | – |
| O=C1C[C@H](O)C[C@@H](/C=C/c2c(Cl)cccc2CC2CCCCC2)O1 [16 ac] | 3200 | 7.1e-08 | – |
| CC[C@H](C)C(=O)O[C@H]1CCC=C2C=C[C@H](C)[C@H](CC[C@@H]3C[C@@H](O)CC(=O)O3)[C@H]21 [Compactin] | – | – | inhibition of HMG-CoA reductase [4]: inhibition |

More lines, main results first:

| IC50 [1] [nM] | IC50 (HMG-CoA reductase) [M] | SMILES | also measured |
| --- | --- | --- | --- |
| 200000 | 6.5e-07 | Cc1cccc(CCC2CCCCC2)c1/C=C/[C@@H]1C[C@@H](O)CC(=O)O1 [16 u] | – |
| 1900 | 1.9e-08 | O=C1C[C@H](O)C[C@@H](/C=C/c2c(Cl)cc(Cl)cc2CC2CCCCC2)O1 [16 z] | – |
| – | 2.8e-07 | Cc1cccc(Cc2ccc(Cl)cc2)c1/C=C/[C@@H]1C[C@@H](O)CC(=O)O1 [16 y] | – |
| – | 8e-07 | O=C1C[C@H](O)C[C@@H](/C=C/c2ccccc2Cc2ccc(Cl)cc2)O1 [16 l] | – |
